# Assay results taken from patent US12303499B2, “Aqueous based pharmaceutical formulations of 1,2-dihydropyridine compounds” (Eisai R&D Management Co., Ltd., priority 2018, dated 2025).
# Assays:
# Assay type in all cases: physicochemical
# [1] = Aqueous solubility of perampanel without solubilizer; conditions: water without solubilizer, aqueous buffer
# Method: Perampanel has particularly poor water solubility. Perampanel has an aqueous solubility of about 0.001 mg/mL at pH 7 at ambient room temperature. Many attempts to solubilize perampanel in water have failed.
# Perampanel is a basic drug that has poor water solubility. One source of perampanel is FYCOMPA, obtained from Eisai Co. Ltd., of Tokyo. […] Solubility studies investigated numerous different solubilizers ranging from organic cosolvents, surfactants, amino acids, complexing agents, and cyclodextrins. Further solubility studies were conducted as a function of pH with four selected solubilizers in the pH range 2 to 6. Solubility with all four solubilizers decreased as the pH was increased from 2 to 6. (See FIG. 2)
# [2] = pH-solubility of perampanel in SBE-β-CD solutions; conditions: aqueous with cosolvent or surfactant or cyclodextrin
# Method: Studies were conducted to determine the effect of Sulfobutyl Ether Beta Cyclodextrin (SBE-β-CD) concentration and pH on perampanel solubility. In one embodiment, the drug is solubilized at acidic pH in high concentration SBE-β-CD solutions, and then administered at neutral pH in low concentration SBE-β-CD solutions after dilution. The pH range studied for the formulation was 1.5 to 8.0 with a SBE-β-CD concentration range of 20% to 50%. For the diluted administration solution, the pH range studied was 6 to 8 with a SBE-β-CD concentration range of 3% to 9.5%.
# In one embodiment, the drug product is administered after dilution with an IV fluid. The solubility of perampanel in SBE-β-CD was determined under diluted conditions in the neutral pH range. Perampanel concentrations after dilution can be as low as 0.08 mg/mL (8 mg in 100 mL) and as high as 0.24 mg/mL (12 mg in 50 mL).
# [3] = Metastable zone width study (precipitation temperature on cooling); conditions: 40% SBE-β-CD, pH 7
# Method: Meta-Stable Zone Width studies on SBE-β-CD based perampanel formulations containing varying concentrations of perampanel were performed to estimate the meta-stable zone for formulations containing 40% SBE-β-CD at pH 7. Lyophilization provides for long-term storage but requires reconstitution prior to use. When the lyophilized formulation is reconstituted, the solution is in a meta-stable supersaturated state. Meta-stable zone width analysis provides an estimate of how close a formulation is to the meta-stable state boundary.
# Perampanel solutions of varying concentration were prepared in 40% SBE-β-CD at pH 7 and placed in a warm temperature controlled mixing vessel with a LASENTECH® probe to detect precipitation. Although those skilled in the art will recognize that formulations as stated in the prior examples may be prepared by a number of methods, the following method is used to prepare formulations at various perampanel concentrations in 40% SBE-β-CD, pH 7, liquid form, for the trials below. First, a SBE-β-CD solution at pH 1.8 is prepared by adding about 25 ml of water to a beaker, then adding about 20 g of SBE-β-CD. The SBE-β-CD has a water content of 4.7%, is 100% pure, and has a theoretical weight of 20 g/0.953, or 21.0 g. The SBE-β-CD is slowly added with mixing until it has dissolved. The volume is checked to ensure that it is not greater than 40 ml. pH of the solution is adjusted to pH 1.75 with 85% phosphoric acid.
# The weight of perampanel used to prepared the desired concentration is then calculated by dividing 100 mg by the product of (1-[moisture content of perampanel/100]) and (anhydrous purity of perampanel/100). In some examples the moisture content is 3.7% and the anhydrous purity is 99.9%. The calculated amount of perampanel is added to the pH 1.75 solution, then mixed overnight at 40° C. The solution is filtered through a 20 μm filter at 40° C., then warmed to 40° C. At that temperature pH is adjusted to 7. Volume is adjusted to 50 mL with water and mixed.
# The solutions were cooled at defined rates and the temperature at which precipitation occurred was recorded. The potency for each sample was measured by HPLC analysis. The precipitation temperature data were analyzed as per the method described by Sangwal, K. in Crystal Growth and Design, 9, 2 (2009) 942-950.
# A plot of the precipitation temperature of perampanel from a 40% SBE-β-CD, pH 7 solution as a function of drug concentration (mg/mL) and cooling rate (deg C./hr) is provided in FIG. 8. A contour plot (see FIG. 9) and a 3-D plot (see FIG. 10) illustrating the relationship between cooling rate (deg/hr), perampanel concentration (mg/mL) and precipitation temperature were generated using the DESIGN-EXPERT® software, version 7.1.6. The DESIGN-EXPERT® model used the precipitation temperature, cooling rate, concentration and concentration terms to fit a surface to the data. The DESIGN-EXPERT® program was then able to extrapolate the precipitation temperature at zero cooling rate for different drug concentrations with 95% confidence intervals from the fit of the data.
# This extrapolated data was used to prepare FIG. 11, which predicts the meta-stable zone boundary for perampanel in a 40% SBE-β-CD formulation at pH 7. Theoretically, if the drug concentration remains at or below the meta-stable zone boundary, then the drug should not precipitate from solution at the defined temperatures.
structure (smiles),measurement,setting,value
"N#Cc1ccccc1-c1cc(-c2ccccn2)cn(-c2ccccc2)c1=O [perampanel, 2-(6′-oxo-1′-phenyl-1′,6′-dihydro[2,3′-bipyridin]-5′-yl)benzonitrile]",solubility,"[1]; 22° C., pH 2",30 µg/mL
same,solubility,"[1]; 22° C., pH 7",~1 µg/mL
same,solubility,"[1]; pH 7, ambient room temperature",~1 µg/mL
same,solubility,"[2]; 3% SBE-β-CD solution, 3% SBE-β-CD, pH 5.5",20 µg/mL
same,solubility,"[2]; 3% SBE-β-CD solution, 3% SBE-β-CD, pH 7",30 µg/mL
same,solubility,"[2]; 3% SBE-β-CD solution, 3% SBE-β-CD, pH 8",30 µg/mL
same,solubility,"[2]; 6% SBE-β-CD solution, 6% SBE-β-CD, pH 5.5",40 µg/mL
same,solubility,"[2]; 6% SBE-β-CD solution, 6% SBE-β-CD, pH 7",30 µg/mL
same,solubility,"[2]; 6% SBE-β-CD solution, 6% SBE-β-CD, pH 8",60 µg/mL
same,solubility,"[2]; 9.5% SBE-β-CD solution, 9.5% SBE-β-CD, pH 5",80 µg/mL
same,solubility,"[2]; 9.5% SBE-β-CD solution, 9.5% SBE-β-CD, pH 7",80 µg/mL
same,Ppt T,"[3]; Exp MC2-102-148, cooling 3.00 deg C./hour, measured 1.99 mg/mL",21.6 deg C.
same,Ppt T,"[3]; Exp MC2-102-149, cooling 1.00 deg C./hour, measured 1.64 mg/mL",31.6 deg C.
same,Ppt T,"[3]; Exp MC2-102-150, cooling 3.00 deg C./hour, measured 1.69 mg/mL",13.7 deg C.
same,Ppt T,"[3]; Exp MC2-102-151, cooling 6.00 deg C./hour, measured 1.63 mg/mL",11.3 deg C.
same,Ppt T,"[3]; Exp MC2-102-153, cooling 6.00 deg C./hour, measured 1.81 mg/mL",12.6 deg C.
same,Ppt T,"[3]; Exp MC2-102-154, cooling 1.00 deg C./hour, measured 1.97 mg/mL",30.5 deg C.
same,Ppt T,"[3]; Exp MC2-102-155, cooling 2.00 deg C./hour, measured 1.68 mg/mL",12.2 deg C.
same,Ppt T,"[3]; Exp MC2-102-157, cooling 4.00 deg C./hour, measured 1.70 mg/mL",17.2 deg C.
same,Ppt T,"[3]; Exp MC2-102-159, cooling 2.00 deg C./hour, measured 1.39 mg/mL",6.4 deg C.
same,Ppt T,"[3]; Exp MC2-102-161, cooling 0.50 deg C./hour, measured 1.79 mg/mL",32.6 deg C.
same,Ppt T,"[3]; Exp MC2-102-162, cooling 1.50 deg C./hour, measured 1.74 mg/mL",21.7 deg C.
same,Ppt T,"[3]; Exp MC2-102-163, cooling 0.75 deg C./hour, measured 1.51 mg/mL",20.3 deg C.
same,Ppt T,"[3]; Exp MC2-102-164, cooling 0.15 deg C./hour, measured 1.74 mg/mL",36.6 deg C.
same,Ppt T,"[3]; Exp MC2-102-165, cooling 0.30 deg C./hour, measured 1.80 mg/mL",34.8 deg C.
same,Ppt T,"[3]; Exp MC2-102-166, cooling 0.75 deg C./hour, measured 1.78 mg/mL",32.1 deg C.
same,Ppt T,"[3]; Exp MC2-102-168, cooling 1.00 deg C./hour, measured 1.52 mg/mL",9.5 deg C.
same,Ppt T,"[3]; Exp MC2-102-169, cooling 0.50 deg C./hour, measured 1.43 mg/mL",29.5 deg C.
same,Ppt T,"[3]; Exp MC2-102-170, cooling 0.30 deg C./hour, measured 1.43 mg/mL",29.6 deg C.
same,Ppt T,"[3]; Exp MC2-102-172, cooling 0.15 deg C./hour, measured 1.53 mg/mL",33.3 deg C.
same,Ppt T,"[3]; Exp MC2-102-174, cooling 0.40 deg C./hour, measured 1.51 mg/mL",30.9 deg C.
same,Ppt T,"[3]; Exp MC2-102-178, cooling 0.22 deg C./hour, measured 1.42 mg/mL",33.7 deg C.
same,Ppt T,"[3]; Exp MC2-102-181, cooling 0.10 deg C./hour, measured 1.46 mg/mL",33.5 deg C.
same,Ppt T,"[3]; Exp MC2-102-182, cooling 0.22 deg C./hour, measured 1.77 mg/mL",35.5 deg C.
same,Ppt T,"[3]; Exp MC2-102-185, cooling 0.40 deg C./hour, measured 1.30 mg/mL",17.4 deg C.
same,Ppt T,"[3]; Exp MC2-102-187, cooling 0.30 deg C./hour, measured 1.10 mg/mL",10.2 deg C.
same,Ppt T,"[3]; Exp MC2-102-192, cooling 0.20 deg C./hour, measured 1.21 mg/mL",22.9 deg C.
same,Ppt T,"[3]; Exp MC2-102-193, cooling 0.10 deg C./hour, measured 1.26 mg/mL",24.1 deg C.
same,Ppt T,"[3]; Exp MC2-102-197, cooling 0.40 deg C./hour, measured 1.06 mg/mL",2.6 deg C.
same,Ppt T,"[3]; Exp MC2-1108-001, cooling 0.40 deg C./hour, measured 0.97 mg/mL",12.8 deg C.
